Measurements from paper PMC7734798 (ACS Medicinal Chemistry Letters, 2020).

Experiments:
[1] = Brain stability / hydrolysis kinetics in rat brain homogenate (LC-DAD-MS/MS); assay type: in vitro ADME; details: 37 °C; for hydrolysis in rat brain homogenate in presence of FAAH inhibitor PF-3845: 5 μM PF-3845; for time to total disappearance of starting compound in rat brain homogenate / half-life at 1 µg/mL: absence of FAAH inhibitor; for half-life at 1 µg/mL: rat, brain homogenate
Procedure: We anticipated that, once they entered into the brain, conjugates would be hydrolyzed to the individual components by intracellular metabolic enzymes processing fatty acid derivatives (e.g., FAAH).[9],[17] Thus, the stability of 1 and 2 was evaluated by LC-DAD-MS/MS analysis of rat brain homogenate incubated with the conjugates, which was sampled at regular intervals over 1 h. To obtain initial clues on the implication of FAAH enzymes in hydrolysis, the assays were performed in the absence and presence of 5 μM FAAH inhibitor PF-3845.[9]
Velp (Usmate, Italy) RX3 vortex mixer and an Elma (Singen, Germany) Sonic T310 Trans ultrasonic […]
Chromatographic runs were obtained on an Agilent (Palo Alto, Ca, US) ZORBAX SB-C18 column (50 × 2.1 mm I.D., 3.5 µm particles), maintained at room temperature and equipped with a guard column. The mobile phase was a mixture of 0.1% aqueous formic acid (A) and acetonitrile (B), flowing at a constant rate of 0.3 mL/min. The mobile phase was set in isocratic mode with A:B ratio of (65:35, V:V); the two components of the mobile phase were filtered through Sartorius (Göttingen, Germany) membrane filters (47 mm diameter, polyamide, 0.2 µm pore size) and degassed by an ultrasonic bath. The injection volume was 10 μL. For compound purity, Total Ion Current (TIC) mode was used and DAD chromatograms were checked at 200 nm and 540 nm. For compound stability and hydrolysis studies, multiple reaction monitoring (MRM) acquisition mode was set up for both compounds 1 and 2, by flow-injection analysis directly in the MS source, in order to optimize ionization parameters and to select two exclusive MRM m/z transitions for each analyte, exploited for quantitative purposes and for qualitative confirmation, respectively.
Sample analysis and method validation […]
For compound stability and hydrolysis studies, after setting up MRM acquisition mode for both 1 and 2 as described previously, the LC-MS/MS method was coupled to an optimized sample preparation protocol to be applied to biological matrices, namely rat plasma and rat brain homogenate. Briefly, for both matrices, 1-mL sample was brought to 37±0.5°C by means of a thermostatted water bath.
Then, 50µL of analyte working solution was added to the matrix sample in order to obtain a final […]
concentration of 1 µg/mL. […]
plasma) and hydrolysis (in brain homogenate). Then, at regular intervals (5, 10, 15, 20, 25, 30, 45, 60 min) a 50-µL aliquot was sampled from the vial, added with 50 µL of ice-cold ACN and centrifuged for 5 min at 4500 rpm at 5°C. The resulting supernatant was subjected to an original miniaturized extraction procedure, based on microextraction by packed sorbent (MEPS), in order to purify the samples from potential interfering signals deriving from the matrices. The solution obtained after MEPS procedure was directly injected into the LC-MS/MS system under the optimized conditions previously described. Compound quantitation was obtained by integrating peak areas obtained from sample analysis and by interpolation on the linearity curve of each analyte. All analyses were carried out in triplicate and results were then expressed as % of remaining compound with respect to that assessed at t0 (100%), plotted against the defined time points.
In order to be applied for stability and hydrolysis studies, the MEPS-LC-MS/MS method was fully validated on both plasma and brain homogenate samples fortified with known amounts of compounds 1 and 2, pretreated and analyzed right after the addition of analyte working solutions. Method validation was performed according to the main international guidelines [ICH Harmonised Tripartite Guideline. Validation of Analytical Procedures: Text and Methodology Q2(R1); International Conference on Harmonisation of Technical] in terms of linearity (including limit of detection, LOD and limit of quantitation, LOQ), precision, accuracy, extraction yield and matrix effect.

N9 microglial cells = assay: Nitrites measurement (Griess reaction) in medium of LPS-treated N9 microglial cells; assay type: cell-based, mouse; details: 100 ng/mL LPS, 6 h pretreatment + 24 h
Source text: Microglia, essential regulators of neuroinflammatory processes, can be polarized to two distinct activation states: M1 and M2. M1 microglia have proinflammatory, neurotoxic properties and are modeled in vitro through lipopolysaccharides (LPS) activation. Alternatively, M2 microglia are involved in anti-inflammatory processes, contributing to trophic support of neurons and neuroprotective functions. A marked microglial activation with high expression levels of proinflammatory genes is found in MS lesions.[23] Conversely, the neuroprotective effects of the MS drug glatiramer are mediated by activated M2 microglia.[24] To this end, we evaluated whether 1 and 2 modulate microglial shift from an M1 neurotoxic phenotype to an M2 neuroprotective one. […] After pretreatment for 6 h and administration for a further 24 h, the microglial phenotype was evaluated through Western blot analysis of the M1-iNOS (inducible Nitric Oxide Synthase) and M2-TREM2 (Triggering Receptor Expressed on Myeloid cells 2) markers (Figure 6). We also assessed nitrite production, due to iNOS induction, in the incubation media. […]
medium/well and treated with increasing concentrations of the compounds (0.5, 1, 5 and 10 μM), in serum-free DMEM for 24 hours. After 24 hours, the viability was evaluated through the MTT assay. […]

SMILES	hydrolysis in rat brain homogenate in presence of FAAH inhibitor PF-3845 [1]	time to total disappearance of starting compound in rat brain homogenate [1] [h]	half-life at 1 µg/mL [1] [min]	levels of nitrites in incubation medium (N9 microglial cells)
CC/C=C\C/C=C\C/C=C\CCCCCCCC(=O)NCCOC(=O)C(CCC)CCC [compound 2]	blocks the hydrolysis of both 1 and 2 to a large extent	≤ 1	~16	reduced their concentration more effectively than VPA
CC/C=C\C/C=C\C/C=C\CCCCCCCC(=O)NCCNC(=O)C(CCC)CCC [compound 1]	blocks the hydrolysis of both 1 and 2 to a large extent	≤ 1	~23	reduced their concentration more effectively than VPA
